From the NIST ThermoML archive (doi:10.1016/j.jct.2009.07.020)
± gives the expanded uncertainty stated by the source.

Key:
[1] = 293.15 K, 101.33 kPa, Liquid; for speed of sound: Sing-around technique in a fixed-path interferometer; for mass density: Vibrating tube method
[2] = xn = mol fraction of the nth substance listed; conditions: 101 kPa, Liquid; for speed of sound: Sing-around technique in a fixed-path interferometer; for mass density: Vibrating tube method

For `BrCCBr` [1,2-dibromoethane], which speed of sound [1] is on record?
Its speed of sound is 1007 ± 0.89 m/s.

What about the mass density [1] of the same compound?
The mass density was 2179.6 ± 0.74 kg/m3.

What does the source list for `BrCCBr` [1,2-dibromoethane] + CCCCCCCCCCO?
speed of sound ([2]; 293.15 K, x1 = 0.0713): 1363.1 ± 0.91 m/s; speed of sound ([2]; 293.15 K, x1 = 0.1171): 1341.8 ± 0.91 m/s; speed of sound ([2]; 293.15 K, x1 = 0.1704): 1317.2 ± 0.9 m/s; speed of sound ([2]; 293.15 K, x1 = 0.2858): 1266 ± 0.88 m/s; speed of sound ([2]; 293.15 K, x1 = 0.3911): 1218.3 ± 0.86 m/s; speed of sound ([2]; 293.15 K, x1 = 0.51): 1167.7 ± 0.84 m/s; speed of sound ([2]; 293.15 K, x1 = 0.543): 1153.4 ± 0.84 m/s; speed of sound ([2]; 293.15 K, x1 = 0.5903): 1134.1 ± 0.83 m/s; speed of sound ([2]; 293.15 K, x1 = 0.6875): 1095.3 ± 0.82 m/s; speed of sound ([2]; 293.15 K, x1 = 0.7289): 1080 ± 0.81 m/s; speed of sound ([2]; 293.15 K, x1 = 0.7873): 1059.7 ± 0.8 m/s; speed of sound ([2]; 293.15 K, x1 = 0.8411): 1042.2 ± 0.8 m/s; speed of sound ([2]; 293.15 K, x1 = 0.9006): 1025.5 ± 0.79 m/s; speed of sound ([2]; 293.15 K, x1 = 0.9495): 1015.6 ± 0.78 m/s; speed of sound ([2]; 293.15 K, x1 = 1): 1007 ± 0.78 m/s; mass density ([2]; 293.15 K, x1 = 0.0713): 873.696 ± 0.17 kg/m3; mass density ([2]; 293.15 K, x1 = 0.1171): 903.742 ± 0.18 kg/m3; mass density ([2]; 293.15 K, x1 = 0.1704): 940.915 ± 0.18 kg/m3; mass density ([2]; 293.15 K, x1 = 0.2858): 1030.69 ± 0.2 kg/m3; mass density ([2]; 293.15 K, x1 = 0.3911): 1125.7 ± 0.25 kg/m3; mass density ([2]; 293.15 K, x1 = 0.51): 1252.15 ± 0.3 kg/m3; mass density ([2]; 293.15 K, x1 = 0.543): 1291.44 ± 0.34 kg/m3; mass density ([2]; 293.15 K, x1 = 0.5903): 1351.8 ± 0.39 kg/m3; mass density ([2]; 293.15 K, x1 = 0.6875): 1492.47 ± 0.45 kg/m3; mass density ([2]; 293.15 K, x1 = 0.7289): 1560.17 ± 0.51 kg/m3; mass density ([2]; 293.15 K, x1 = 0.7873): 1665.23 ± 0.58 kg/m3; mass density ([2]; 293.15 K, x1 = 0.8411): 1773.36 ± 0.66 kg/m3; mass density ([2]; 293.15 K, x1 = 0.9006): 1908.2 ± 0.75 kg/m3; mass density ([2]; 293.15 K, x1 = 0.9495): 2033.54 ± 0.84 kg/m3; mass density ([2]; 293.15 K, x1 = 1): 2179.6 ± 0.73 kg/m3; speed of sound ([2]; 313.15 K, x1 = 0.0713): 1296.4 ± 0.9 m/s; speed of sound ([2]; 313.15 K, x1 = 0.1171): 1275.4 ± 0.89 m/s; speed of sound ([2]; 313.15 K, x1 = 0.1704): 1251.8 ± 0.88 m/s; speed of sound ([2]; 313.15 K, x1 = 0.2858): 1202.9 ± 0.86 m/s; speed of sound ([2]; 313.15 K, x1 = 0.3911): 1157.2 ± 0.84 m/s; speed of sound ([2]; 313.15 K, x1 = 0.51): 1108.9 ± 0.83 m/s; speed of sound ([2]; 313.15 K, x1 = 0.543): 1095 ± 0.82 m/s; speed of sound ([2]; 313.15 K, x1 = 0.5903): 1076.8 ± 0.82 m/s; speed of sound ([2]; 313.15 K, x1 = 0.6875): 1040.5 ± 0.8 m/s; speed of sound ([2]; 313.15 K, x1 = 0.7289): 1025.9 ± 0.79 m/s; speed of sound ([2]; 313.15 K, x1 = 0.7873): 1006.6 ± 0.79 m/s; speed of sound ([2]; 313.15 K, x1 = 0.8411): 990.48 ± 0.78 m/s; speed of sound ([2]; 313.15 K, x1 = 0.9006): 975.34 ± 0.77 m/s; speed of sound ([2]; 313.15 K, x1 = 0.9495): 965.65 ± 0.77 m/s; speed of sound ([2]; 313.15 K, x1 = 1): 955.97 ± 0.77 m/s; mass density ([2]; 313.15 K, x1 = 0.0713): 859.289 ± 0.18 kg/m3; mass density ([2]; 313.15 K, x1 = 0.1171): 888.874 ± 0.18 kg/m3; mass density ([2]; 313.15 K, x1 = 0.1704): 925.398 ± 0.18 kg/m3; mass density ([2]; 313.15 K, x1 = 0.2858): 1013.6 ± 0.19 kg/m3; mass density ([2]; 313.15 K, x1 = 0.3911): 1106.72 ± 0.24 kg/m3; mass density ([2]; 313.15 K, x1 = 0.51): 1230.3 ± 0.29 kg/m3; mass density ([2]; 313.15 K, x1 = 0.543): 1268.7 ± 0.33 kg/m3; mass density ([2]; 313.15 K, x1 = 0.5903): 1327.54 ± 0.37 kg/m3; mass density ([2]; 313.15 K, x1 = 0.6875): 1464.54 ± 0.43 kg/m3; mass density ([2]; 313.15 K, x1 = 0.7289): 1530.45 ± 0.49 kg/m3; mass density ([2]; 313.15 K, x1 = 0.7873): 1632.9 ± 0.56 kg/m3; mass density ([2]; 313.15 K, x1 = 0.8411): 1738.48 ± 0.63 kg/m3; mass density ([2]; 313.15 K, x1 = 0.9006): 1870.5 ± 0.72 kg/m3; mass density ([2]; 313.15 K, x1 = 0.9495): 1993.5 ± 0.82 kg/m3; mass density ([2]; 313.15 K, x1 = 1): 2137.7 ± 0.71 kg/m3

With `ClCCCl` [1,2-dichloroethane] as the compound, how does the speed of sound [1] read?
Its speed of sound is 1212.8 ± 0.94 m/s.

What about the mass density [1] of the same compound?
The mass density was 1252.74 ± 0.22 kg/m3.

What does the source list for `ClCCCl` [1,2-dichloroethane] + CCCCCCCCCCO?
speed of sound ([2]; 293.15 K, x1 = 0.0692): 1382.8 ± 0.92 m/s; speed of sound ([2]; 293.15 K, x1 = 0.1136): 1373.9 ± 0.92 m/s; speed of sound ([2]; 293.15 K, x1 = 0.2034): 1355.3 ± 0.91 m/s; speed of sound ([2]; 293.15 K, x1 = 0.2938): 1335.6 ± 0.9 m/s; speed of sound ([2]; 293.15 K, x1 = 0.3645): 1319.7 ± 0.9 m/s; speed of sound ([2]; 293.15 K, x1 = 0.507): 1287.5 ± 0.89 m/s; speed of sound ([2]; 293.15 K, x1 = 0.6043): 1265.4 ± 0.89 m/s; speed of sound ([2]; 293.15 K, x1 = 0.699): 1244.6 ± 0.88 m/s; speed of sound ([2]; 293.15 K, x1 = 0.7455): 1235.1 ± 0.88 m/s; speed of sound ([2]; 293.15 K, x1 = 0.7816): 1228.3 ± 0.88 m/s; speed of sound ([2]; 293.15 K, x1 = 0.8142): 1222.5 ± 0.88 m/s; speed of sound ([2]; 293.15 K, x1 = 0.8429): 1218.1 ± 0.88 m/s; speed of sound ([2]; 293.15 K, x1 = 0.9034): 1211.6 ± 0.88 m/s; speed of sound ([2]; 293.15 K, x1 = 0.9579): 1210.4 ± 0.88 m/s; speed of sound ([2]; 293.15 K, x1 = 1): 1212.8 ± 0.89 m/s; mass density ([2]; 293.15 K, x1 = 0.0692): 841.579 ± 0.14 kg/m3; mass density ([2]; 293.15 K, x1 = 0.1136): 849.567 ± 0.14 kg/m3; mass density ([2]; 293.15 K, x1 = 0.2034): 867.401 ± 0.13 kg/m3; mass density ([2]; 293.15 K, x1 = 0.2938): 887.762 ± 0.13 kg/m3; mass density ([2]; 293.15 K, x1 = 0.3645): 905.827 ± 0.13 kg/m3; mass density ([2]; 293.15 K, x1 = 0.507): 949.509 ± 0.12 kg/m3; mass density ([2]; 293.15 K, x1 = 0.6043): 986.214 ± 0.13 kg/m3; mass density ([2]; 293.15 K, x1 = 0.699): 1029.23 ± 0.14 kg/m3; mass density ([2]; 293.15 K, x1 = 0.7455): 1053.66 ± 0.16 kg/m3; mass density ([2]; 293.15 K, x1 = 0.7816): 1074.54 ± 0.17 kg/m3; mass density ([2]; 293.15 K, x1 = 0.8142): 1094.99 ± 0.19 kg/m3; mass density ([2]; 293.15 K, x1 = 0.8429): 1114.4 ± 0.21 kg/m3; mass density ([2]; 293.15 K, x1 = 0.9034): 1160.56 ± 0.24 kg/m3; mass density ([2]; 293.15 K, x1 = 0.9579): 1209.39 ± 0.27 kg/m3; mass density ([2]; 293.15 K, x1 = 1): 1252.74 ± 0.22 kg/m3; speed of sound ([2]; 313.15 K, x1 = 0.0692): 1314.9 ± 0.9 m/s; speed of sound ([2]; 313.15 K, x1 = 0.1136): 1305.7 ± 0.9 m/s; speed of sound ([2]; 313.15 K, x1 = 0.2034): 1287.4 ± 0.89 m/s; speed of sound ([2]; 313.15 K, x1 = 0.2938): 1267.8 ± 0.89 m/s; speed of sound ([2]; 313.15 K, x1 = 0.3645): 1251.3 ± 0.88 m/s; speed of sound ([2]; 313.15 K, x1 = 0.507): 1217.8 ± 0.88 m/s; speed of sound ([2]; 313.15 K, x1 = 0.6043): 1195.1 ± 0.87 m/s; speed of sound ([2]; 313.15 K, x1 = 0.699): 1174.3 ± 0.86 m/s; speed of sound ([2]; 313.15 K, x1 = 0.7455): 1164.8 ± 0.86 m/s; speed of sound ([2]; 313.15 K, x1 = 0.7816): 1157.8 ± 0.86 m/s; speed of sound ([2]; 313.15 K, x1 = 0.8142): 1151.9 ± 0.86 m/s; speed of sound ([2]; 313.15 K, x1 = 0.8429): 1147.4 ± 0.86 m/s; speed of sound ([2]; 313.15 K, x1 = 0.9034): 1140.5 ± 0.85 m/s; speed of sound ([2]; 313.15 K, x1 = 0.9579): 1136.8 ± 0.86 m/s; speed of sound ([2]; 313.15 K, x1 = 1): 1136 ± 0.87 m/s; mass density ([2]; 313.15 K, x1 = 0.0692): 827.391 ± 0.14 kg/m3; mass density ([2]; 313.15 K, x1 = 0.1136): 835.077 ± 0.14 kg/m3; mass density ([2]; 313.15 K, x1 = 0.2034): 852.221 ± 0.14 kg/m3; mass density ([2]; 313.15 K, x1 = 0.2938): 871.824 ± 0.13 kg/m3; mass density ([2]; 313.15 K, x1 = 0.3645): 889.228 ± 0.13 kg/m3; mass density ([2]; 313.15 K, x1 = 0.507): 931.327 ± 0.12 kg/m3; mass density ([2]; 313.15 K, x1 = 0.6043): 966.695 ± 0.13 kg/m3; mass density ([2]; 313.15 K, x1 = 0.699): 1008.07 ± 0.13 kg/m3; mass density ([2]; 313.15 K, x1 = 0.7455): 1031.55 ± 0.15 kg/m3; mass density ([2]; 313.15 K, x1 = 0.7816): 1051.57 ± 0.17 kg/m3; mass density ([2]; 313.15 K, x1 = 0.8142): 1071.24 ± 0.18 kg/m3; mass density ([2]; 313.15 K, x1 = 0.8429): 1089.86 ± 0.2 kg/m3; mass density ([2]; 313.15 K, x1 = 0.9034): 1134.21 ± 0.22 kg/m3; mass density ([2]; 313.15 K, x1 = 0.9579): 1181.34 ± 0.26 kg/m3; mass density ([2]; 313.15 K, x1 = 1): 1223.38 ± 0.2 kg/m3
